For data set [1], the species on record is Rattus norvegicus. The data set is described as follows: Ability to cause 50% reduction in sorbitol levels of sciatic nerve of streptozotocinized rats was determined; value ranges from 1.5-5. It is filed as functional.
The target in data set [2] is T1, Aldo-keto reductase family 1 member B1 (Bos taurus, UniProt P16116). Put plainly: In vitro inhibition of partially purified calf lens aldose reductase.
The species named for data set [3] is Rattus norvegicus. The data set is described as follows: Ability to cause 50% reduction in sorbitol levels of sciatic nerve of streptozotocinized rats was determined; value ranges from 25-100. It is filed as functional.
Data set [4] deals with T1, Aldo-keto reductase family 1 member B1. Put plainly: In vitro inhibition of partially purified calf lens aldose reductase; value ranges from 10E-5 to 10E-6.
Data set [5] is filed under the species Rattus norvegicus. The data set is described as follows: Ability to cause 50% reduction in sorbitol levels of sciatic nerve of streptozotocinized rats was determined. The settings on record: Rattus norvegicus, Sciatic nerve; read-out: ED50. It is filed as functional.
The nature of data set [6]: pKa in DMF/H2O was measured. It is filed as physicochemical.
For data set [7], the species on record is Rattus norvegicus. Put plainly: 50% reduction in sorbitol accumulation in isolated sciatic nerves incubated in the presence of high glucose concentration; value ranges from 10E-2 - 10E-3. It is filed as functional. The note with it: Sciatic nerve.
The species named for data set [8] is Rattus norvegicus. The data set is described as follows: Dose causing 50% reduction in sorbitol accumulation in sciatic nerves of streptozotocinized rats, (tid).
In data set [9] the target is Aldo-keto reductase family 1 member B1 (Rattus norvegicus, UniProt P07943). Put plainly: In vitro inhibitory activity towards partially purified rat lens aldose reductase.
Data set [10] addresses T1, Aldo-keto reductase family 1 member B1. The data set is described as follows: In vitro inhibitory activity towards partially purified calf lens aldose reductase; value ranges from 10E-4- 10E-5.
Data set [11] is filed under the species Rattus norvegicus. The data set is described as follows: Ability to cause 50% reduction in sorbitol levels of sciatic nerve of streptozotocinized rats was determined; value ranges from 2.5-5. It is filed as functional.
Data set [12] addresses T1, Aldo-keto reductase family 1 member B1. The data set is described as follows: In vitro inhibitory activity towards partially purified calf lens aldose reductase; value ranges from 10E-6 - 10E-7.
Data set [13] has the same target. The data set is described as follows: In vitro inhibitory activity towards partially purified calf lens aldose reductase; value ranges from 10E-4 - 10E-6.

The structures appear in SMILES notation. Some results are limits rather than exact numbers.

The values that follow come from ChEMBL document CHEMBL1124229, “Spiro hydantoin aldose reductase inhibitors” (J Med Chem, 1988).

What is called IC50 is the concentration that inhibits the measured activity by half. Take `O=C1NC(=O)C2(CCOc3c2cc(Cl)c2ccccc32)N1` (stereo not drawn): the ED50 in data set [1] amounted to 1.5 mg/kg. Moreover, the IC50 in data set [2] was < 0.1 µM.

`O=c1cnn(Cc2ccccc2)c(=O)[nH]1`: the half-maximal inhibitory concentration (IC50) in [2] came out at 10 µM. The same molecule gave an ED50 in data set [3] of 25 mg/kg.

What is called pKa is the negative logarithm of the acid dissociation constant. A high value points to a weaker acid or stronger base. In the case of `O=C(O)C1CCOc2ccc(Cl)cc21` (stereo not drawn), the 50% inhibitory concentration (IC50) in [4] worked out at 10 µM; in data set [7], 10000 µM. Moreover, the results for the ED50 in data set [5] and in [8] were > 25 mg/kg and >0.0001 M/kg, respectively. The molecule also yielded a pKa in [6] of 4.9.

Turning to `C[C@@H]1O[C@@H](Oc2c(-c3ccc(O)c(O)c3)oc3cc(O)cc(O)c3c2=O)[C@H](O)[C@H](O)[C@H]1O` [QUERCITRIN], the values for the IC50 in data set [4] and in data set [9] were 10 µM and ~0.1 µM, respectively. In addition, in data set [5], the ED50 was > 40 mg/kg.

With `COc1ccc2c(c1)CCCC21NC(=O)NC1=O` (stereo not drawn), inhibition in data set [10] was half-maximal at 100 µM (IC50). For the same molecule, in [5], the ED50 was > 25 mg/kg.

`O=C1NC(=O)C2(CCn3c(=O)ccc4cccc2c43)N1` (stereo not drawn) had an ED50 in [11] of 2.5 mg/kg. In [12], this molecule yielded a concentration for half-maximal inhibition (IC50) of 1 µM.

With `O=C(O)C1CCOc2ccc(F)cc21` (stereo not drawn), the ED50 in data set [5] is > 25 mg/kg. Moreover, in data set [13], it took 100 µM to reach half-maximal inhibition (IC50).
